Here are results for 16 compounds from US20260297105A1, “RAF-MEK PROTEIN COMPLEX MODULATORS AND METHODS OF USE THEREOF” (GANDEEVA THERAPEUTICS, INC., priority 2023, published 2026).

Molecules are shown by their SMILES. Read-outs that look alike come from different tables or passages of the source.

In one assay the target is T1, MEK1 (Homo sapiens, UniProt Q02750).
T1 construct: purchased SignalChem M02-14H
As to the kind of experiment: MEK1 kinase cascade assay (ADP-Glo), inhibition of MEK1 kinase activity. In kind it is biochemical. The gist of the method: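 Compounds were preincubated 20 mins at 25° C with 25 nM BRAF(445-723) in 10 mM HEPES pH 7.5, 5 mM MgCl2, 2 mM CHAPS, 1 mM DTT, then 6.25 nM MEK1, 0.5 μM ERK1 and 1 mM ATP were added for 1 hr at 25° C, with 1% DMSO. ADP-Glo luminescence was normalized to DMSO and 1 μM Trametinib; IC50 came from 4-parameter fits of duplicates.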

The next assay has as its system BRAF-MEK1. Briefly: BRAF-MEK TR-FRET assay, stabilization of MEK1 and BRAF interaction. Format: binding. As to conditions: read-out: BRAF-MEK TR-FRET Assay (EC50, fold stabilization). Put shortly: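 His-MEK1 (full-length, E. coli) at 10 nM with GST-BRAF at 4 nM, 1 h at 25° C in pH 7.5 Tris buffer with 5 mM MgCl2 and 100 μM ATP; anti-His-Tb/anti-GST-XL665 added for 1 h more. 665/620 FRET ratio over DMSO gives fold stabilization; EC50 from 4-parameter fit, duplicate wells.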
In general terms: TR-FRET usually uses a lanthanide donor and a delayed reading to cut background.

A further assay has as its system p-ERK1/2 in HCT116 cells. Briefly: AlphaLISA p-ERK assay, cellular inhibition of ERK phosphorylation in HCT116 cells. In kind it is cell-based. As to conditions: Homo sapiens, HCT-116, 2 hours treatment, PMA stimulation 30 mins. On the procedure: Cell culture: HCTI 16, HT-29, and NCI-H292 cells were acquired from American Type Culture Collection (ATCC). HCT116 and HT-29 cells were maintained in ATCC-formulated McCoy's 5a Medium Modified supplemented with 10% fetal bovine serum, NCI-H292 cells were cultured in ATCC formulated RPMI-1640 supplemented with 10% fetal bovine serum. All cells were maintained at 37° C., 5% CO2.
Efficacy of exemplary compounds in cellular inhibition of ERK phosphorylation: Phosphorylation status of ERK1/2 (p-ERK) was used as a readout for inhibition of BRAF-MEK pathway. p-ERK was detected using an immunoassay for quantitative detection of phospho-ERK 1/2 (phosphorylated on Thr202/Tyr204 in ERK1, or Thr185/Tyr187 in ERK2), such as the AlphaLISA® SureFire® Ultra™ p-ERK1/2 (Thr202/Tyr204) kit (Perkin Elmer). HCT116 cells were plated at 10,000 cells per well in 384-well TC-treated plates (Coming). Cells were plated for 24 hours, the medium was then aspirated and cells were treated with vehicle (DMSO) or test compounds (0.1% DMSO in final volume) prepared in serum free, phenol red free medium for 2 hours. Following treatment, cells were stimulated with PMA (1.25 μM/well) for 30 mins after which the medium was aspirated, and the cells were lysed for 10 mins with 1× lysis buffer supplemented with Halt Protease and Phosphatase Inhibitor Cocktail (Thermo Fisher). The lysate was transferred to a 384 well Alpha-plate (PerkinElmer) and incubated for 1 hour with acceptor bead mix followed by 1 hour incubation with donor bead mix. After incubation, the plate was read on a Cytation5 microplate reader (Agilent). % inhibition as a function of compound concentration from 3 replicate wells was fit with a 4-parameter logistic curve using GraphPad Prism or CDD Vault to derive IC50 values.
In this table, for the BRAF ADP Glo kinase assay, “A” indicates IC50 of less than 5 nM; “B” indicates IC50 of between 5 nM to 50 nM; and “C” indicates IC50 of between 50 nM to 500 nM. “D” indicates IC50 of greater than 500 nM. For the BRAF-MEK TR-FRET assay, “A” indicates EC50 of less than 50 nM; “B” indicates EC50 of between 50 nM to 200 nM; and “C” indicates EC50 of between 200 nM to 1 μM. “D′” indicates EC50 of greater than 1 μM. For the AlphaLisa P-ERK assay, “A” indicates IC50 of less than 1 nM; “B” indicates IC50 of between 1 nM to 10 nM; and “C” indicates IC50 of between 10 nM to 100 nM. “D” indicates IC50 of greater than 100 nM. For the cell viability assay, “A” indicates IC50 of less than 1 nM; “B” indicates IC50 of between 1 nM to 10 nM; and “C” indicates IC50 of between 10 nM to 100 nM. “D” indicates IC50 of greater than 100 nM.
For orientation: Bead proximity is the source of the signal in Alpha formats.

The test system of a further assay is NCI-H292 cells. Briefly: Cell viability assay (CellTiter-Glo), NCI-H292. As to conditions: Homo sapiens, 72 hrs, read-out: Cell Viability Assay: IC50 Determination NCI-H292. Format: cell-based. Put shortly:
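Cells seeded at 2,000 per well in RPMI-1640 with 10% FBS, treated 24 h later with compound (0.1% DMSO) for 72 h. Viability read by CellTiter-Glo luminescence; IC50 from 4-parameter logistic fit of % inhibition over 3 replicate wells.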
(In general: Cellular ATP, detected with luciferase, serves as a proxy for viable cell number.)

Where [1] appears, read: 25 nM BRAF, 6.25 nM MEK1, 0.5 μM ERK, 1 mM ATP, 20 min preincubation, 1 hr at 25° C., read-out: BRAF ADP Glo kinase assay V3 (IC50).
Setting [2] is: 4 nM BRAF, 10 nM MEK, 100 μM ATP, 1 hr at 25° C.

T1 sequence (Q02750 whole entry): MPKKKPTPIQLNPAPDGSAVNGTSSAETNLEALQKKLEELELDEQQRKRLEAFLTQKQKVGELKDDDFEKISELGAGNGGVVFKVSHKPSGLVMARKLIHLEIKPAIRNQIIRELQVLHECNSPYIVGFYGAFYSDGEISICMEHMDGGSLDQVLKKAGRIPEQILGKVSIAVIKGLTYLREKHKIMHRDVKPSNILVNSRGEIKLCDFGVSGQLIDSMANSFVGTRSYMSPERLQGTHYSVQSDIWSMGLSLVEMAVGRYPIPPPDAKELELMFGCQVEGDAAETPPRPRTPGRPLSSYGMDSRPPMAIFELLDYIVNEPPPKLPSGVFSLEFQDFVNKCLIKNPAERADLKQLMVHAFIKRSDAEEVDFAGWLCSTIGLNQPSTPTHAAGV
T1 sequence (P15056 445-723 partner limits assumed): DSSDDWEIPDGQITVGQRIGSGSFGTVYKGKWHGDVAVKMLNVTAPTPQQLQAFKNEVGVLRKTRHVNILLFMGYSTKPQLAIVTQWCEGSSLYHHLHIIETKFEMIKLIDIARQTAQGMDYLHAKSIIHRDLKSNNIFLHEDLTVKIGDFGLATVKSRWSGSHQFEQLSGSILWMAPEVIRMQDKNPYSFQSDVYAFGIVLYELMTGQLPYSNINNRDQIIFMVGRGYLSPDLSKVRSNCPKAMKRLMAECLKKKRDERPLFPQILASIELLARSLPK

Consider `CN(C)S(=O)(=O)Nc1cccc(CN2C(=O)Oc3c(ccc(Oc4cccnn4)c3F)C23COC3)c1F` [Compound 40, 3-({3-[(dimethylsulfamoyl)amino]-2-fluorophenyl}methyl)-8-fluoro-7-(pyridazin-3-yloxy)-2,3-dihydrospiro[1,3-benzoxazine-4,3′-oxetan]-2-one], for which the figures for the IC50 on MEK1 (setting [1]), with p-ERK1/2 in HCT116 cells and with NCI-H292 cells were 5 to 50 nM, 10 to 100 nM and 1 to 10 nM, respectively. Also, the EC50 in the assay with BRAF-MEK1 (setting [2]) lay in the range of 50 to 200 nM.

`CNS(=O)(=O)Nc1cccc(CN2Cc3ccc(OC(=O)N(C)C)c(F)c3OC2=O)c1F` [Compound 131, 8-fluoro-3-(2-fluoro-3-((N-methylsulfamoyl)amino)benzyl)-2-oxo-3,4-dihydro-2H-benzo[e][1,3]oxazin-7-yl dimethylcarbamate]: the IC50 on MEK1 (setting [1]) is less than 5 nM; in the assay on p-ERK1/2 in HCT116 cells it was 1 to 10 nM; with NCI-H292 cells, 1 to 10 nM. Also, the EC50 with BRAF-MEK1 (setting [2]) was in the range of 50 to 200 nM.

`CNS(=O)(=O)Nc1cccc(CN2Cc3cc(Cl)c(OC(=O)N(C)C)cc3OC2=O)c1F` [Compound 149, 6-chloro-3-(2-fluoro-3-((N-methylsulfamoyl)amino)benzyl)-2-oxo-3,4-dihydro-2H-benzo[e][1,3]oxazin-7-yl dimethylcarbamate]: the IC50 on MEK1 (BRAF ADP Glo kinase assay V3 (IC50)) was less than 5 nM; in the assay on p-ERK1/2 in HCT116 cells it was 1 to 10 nM; in the assay on NCI-H292 cells, 1 to 10 nM. The EC50 with BRAF-MEK1 (60 min) was in the range of 50 to 200 nM.

Turning to `CNS(=O)(=O)Nc1nccc(CN2Cc3ccc(Oc4nccnn4)cc3OC2=O)c1F` [Compound 164, 3-{[3-fluoro-2-(methylaminosulfonylamino)-4-pyridyl]methyl}-7-(1,2,4-triazin-3-yloxy)-3,4-dihydro-2H-1,3-benzoxazin-2-one], the values for the IC50 at MEK1 (setting [1]), in the assay on p-ERK1/2 in HCT116 cells and with NCI-H292 cells were 5 to 50 nM, 10 to 100 nM and less than 1 nM, respectively. Besides, the EC50 with BRAF-MEK1 (setting [2]) is less than 50 nM.

With `CNS(=O)(=O)Nc1cccc(CN2C(=O)Oc3cc(OC(=O)N(C)C)ccc3C23COC3)c1F` [Compound 115, 3-({2-fluoro-3-[(methylsulfamoyl)amino]phenyl}methyl)-2-oxo-2,3-dihydrospiro[1,3-benzoxazine-4,3′-oxetan]-7-yl N,N-dimethylcarbamate], the IC50 at MEK1 (setting [1]) was less than 5 nM; in the assay with p-ERK1/2 in HCT116 cells it was 1 to 10 nM; with NCI-H292 cells it was less than 1 nM. Further, in the assay on BRAF-MEK1 (setting [2]), the EC50 fell in the range of 50 to 200 nM.

On to `CNS(=O)(=O)Nc1cccc(CN2C(=O)Oc3c(ccc(Oc4ncco4)c3F)C23COC3)c1F` [Compound 82], for which the figures for the IC50 on MEK1 (setting [1]), in the assay with p-ERK1/2 in HCT116 cells and in the assay on NCI-H292 cells were less than 5 nM, 1 to 10 nM and 1 to 10 nM, respectively. For the same compound, in the assay on BRAF-MEK1 (setting [2]), the EC50 fell in the range of 200 to 1000 nM.

Take `CNS(=O)(=O)Nc1cccc(CN2C(=O)Oc3cc(Oc4cccnn4)ccc3[C@H]2C)c1F` (single isomer, unassigned) [Compound 71]: the IC50 on MEK1 (setting [1]) lay in the range of 5 to 50 nM; in the assay with p-ERK1/2 in HCT116 cells, 10 to 100 nM; with NCI-H292 cells, 1 to 10 nM. Also, in the assay with BRAF-MEK1 (setting [2]), the EC50 lay in the range of 200 to 1000 nM.

Regarding `CN(C)S(=O)(=O)Nc1cccc(CN2C(=O)Oc3cc(Oc4cccnn4)ccc3C23COC3)c1F` [Compound 64, 3-({3-[(dimethylsulfamoyl)amino]-2-fluorophenyl}methyl)-7-(pyridazin-3-yloxy)-2,3-dihydrospiro[1,3-benzoxazine-4,3′-oxetan]-2-one], the IC50 at MEK1 (setting [1]) is less than 5 nM; in the assay on p-ERK1/2 in HCT116 cells, 1 to 10 nM; in the assay on NCI-H292 cells, 1 to 10 nM. The EC50 with BRAF-MEK1 (setting [2]) is 50 to 200 nM.

Turning to `CNS(=O)(=O)Nc1nccc(CN2C(=O)Oc3cc(Oc4ncco4)ccc3C23COC3)c1F` [Compound 68, 3-({3-fluoro-2-[(methylsulfamoyl)amino]pyridin-4-yl}methyl)-7-(1,3-oxazol-2-yloxy)-2,3-dihydrospiro[1,3-benzoxazine-4,3′-oxetan]-2-one], the figures for the IC50 at MEK1 (setting [1]), in the assay with p-ERK1/2 in HCT116 cells and in the assay with NCI-H292 cells were 5 to 50 nM, 10 to 100 nM and 1 to 10 nM, respectively. For the same compound, in the assay on BRAF-MEK1 (setting [2]), the EC50 was in the range of 50 to 200 nM.

As to `CNS(=O)(=O)Nc1cccc(CN2C(=O)Oc3cc(Oc4cccnn4)c(F)cc3[C@H]2C)c1F` (single isomer, unassigned) [Compound 67], the IC50 on MEK1 (setting [1]) was 5 to 50 nM; in the assay with p-ERK1/2 in HCT116 cells it was 1 to 10 nM; in the assay on NCI-H292 cells it was 1 to 10 nM. Further, the EC50 with BRAF-MEK1 (setting [2]) lay in the range of 200 to 1000 nM.

With `CNS(=O)(=O)Nc1cccc(CN2C(=O)Oc3cc(Oc4cccnn4)ccc3C23CCC3)c1F` [Compound 41, 3-({2-fluoro-3-[(methylsulfamoyl)amino]phenyl}methyl)-7-(pyridazin-3-yloxy)-2,3-dihydrospiro[1,3-benzoxazine-4,1′-cyclobutan]-2-one], the IC50 at MEK1 (setting [1]) is less than 5 nM; in the assay with p-ERK1/2 in HCT116 cells, 1 to 10 nM; in the assay on NCI-H292 cells it was 1 to 10 nM. Moreover, the EC50 with BRAF-MEK1 (setting [2]) is less than 50 nM.

For the compound `CNS(=O)(=O)Nc1cccc(CN2C(=O)Oc3cc(Oc4ncco4)ccc3C23COC3)c1F` [Compound 95, 3-({2-fluoro-3-[(methylsulfamoyl)amino]phenyl}methyl)-7-(1,3-oxazol-2-yloxy)-2,3-dihydrospiro[1,3-benzoxazine-4,3′-oxetan]-2-one], the results for the IC50 on MEK1 (setting [1]), with p-ERK1/2 in HCT116 cells and with NCI-H292 cells were less than 5 nM, 1 to 10 nM and 1 to 10 nM, respectively. Further, the EC50 in the assay with BRAF-MEK1 (setting [2]) lay within 50 to 200 nM.

Turning to `O=C1Oc2cc(Oc3cccnn3)c(F)cc2C2(COC2)N1Cc1cccc(NS(=O)(=O)C2CC2)c1F` [Compound 53, N-(2-fluoro-3-{[6-fluoro-2-oxo-7-(pyridazin-3-yloxy)-2,3-dihydrospiro[1,3-benzoxazine-4,3′-oxetan]-3-yl]methyl}phenyl)cyclopropanesulfonamide], the results for the IC50 at MEK1 (setting [1]), in the assay with p-ERK1/2 in HCT116 cells and in the assay with NCI-H292 cells were 5 to 50 nM, 10 to 100 nM and 1 to 10 nM, respectively. Also, the EC50 in the assay with BRAF-MEK1 (setting [2]) lay in the range of 50 to 200 nM.

Turning to `CNS(=O)(=O)Nc1cccc(CN2C(=O)Oc3cc(Oc4cccnn4)cc(F)c3C23COC3)c1F` [Compound 63], the IC50 at MEK1 (setting [1]) lay within 5 to 50 nM; with p-ERK1/2 in HCT116 cells, 1 to 10 nM; in the assay with NCI-H292 cells, 1 to 10 nM. The EC50 in the assay on BRAF-MEK1 (setting [2]) lay within 50 to 200 nM.

Take `[2H]C1([2H])c2ccc(Oc3cccnn3)cc2OC(=O)N1Cc1cccc(NS(=O)(=O)NC)c1F` [Compound 52, 3-{[2-fluoro-3-(methylaminosulfonylamino)phenyl]methyl}-7-(3-pyridazinyloxy)(4,4-^2H2)-3,4-dihydro-2H-1,3-benzoxazin-2-one]: the IC50 at MEK1 (setting [1]) is 5 to 50 nM; in the assay on p-ERK1/2 in HCT116 cells it was 1 to 10 nM; with NCI-H292 cells, 1 to 10 nM. Moreover, the EC50 in the assay with BRAF-MEK1 (setting [2]) is 50 to 200 nM.

For the compound `CNS(=O)(=O)Nc1cccc(CN2C(=O)Oc3c(ccc(Oc4cccnn4)c3F)[C@@H]2C)c1F` (single isomer, unassigned) [Compound 35], the IC50 at MEK1 (setting [1]) is less than 5 nM; with p-ERK1/2 in HCT116 cells it was 10 to 100 nM; with NCI-H292 cells it was 10 to 100 nM. Further, the EC50 in the assay on BRAF-MEK1 (setting [2]) fell in the range of 50 to 200 nM.

What is called IC50 is the concentration at which inhibition is half-maximal.
